How the values were obtained:
Chemical Hydrolysis = format: physicochemical
[1] = In Vitro Hydrolysis in Rat Plasma; format: in vitro ADME
Rat Paw Edema = experiment: Rat Paw Edema; format: in vivo; conditions: Dose (mg/kg): Example 11 80; Example 12 121

Row | half-life (Chemical Hydrolysis; pH 3) [h] | half-life (Chemical Hydrolysis; pH 7.4) [h] | half-life (Chemical Hydrolysis; pH 8) [h] | metabolised at 2 h ([1]; in ˜2 h, column head pH 3, read-out: In Vitro Hydrolysis in Rat Plasma: conversion to 6-MNA) [%] | half-life ([1]; column head pH 3, read-out: In Vitro Hydrolysis in Rat Plasma: T1/2) [min] | SMILES | Rat Paw Edema % Inhibition (Rat Paw Edema) [%]
1 | > 25 | 22 | 7 | 21 | – | COc1ccc2cc(CC(=O)OCC(C)=O)ccc2c1 [Example 1, (6-methoxy-naphthalen-2-yl)-acetic acid 2-oxo-propyl ester] | –
2 | – | – | – | – | – | COc1ccc2cc(CC(=O)NO)ccc2c1 [Example 11, N-Hydroxy-2-(6-methoxy-naphthalen-2-yl)-acetamide] | 59.6
3 | > 300 | ~280 | ~280 | – | > 5 | COc1ccc2cc(CC(=O)OCCOCCO[N+](=O)[O-])ccc2c1 [Example 2, (6-Methoxy-naphthalen-2-yl)-acetic acid 2-(2-nitrooxy-ethoxy)-ethyl ester] | –

Source: US6552078B2, “6-methoxy-2-naphthylacetic acid prodrugs” (priority 1999, dated 2003)
